Format in all cases: cell-based
For one assay, the target named is T1, PPARδ (Homo sapiens, UniProt Q03181).
T1 construct: It is a handle made for the test, not a second protein
T1 sequence (Q03181 211-441 limits assumed): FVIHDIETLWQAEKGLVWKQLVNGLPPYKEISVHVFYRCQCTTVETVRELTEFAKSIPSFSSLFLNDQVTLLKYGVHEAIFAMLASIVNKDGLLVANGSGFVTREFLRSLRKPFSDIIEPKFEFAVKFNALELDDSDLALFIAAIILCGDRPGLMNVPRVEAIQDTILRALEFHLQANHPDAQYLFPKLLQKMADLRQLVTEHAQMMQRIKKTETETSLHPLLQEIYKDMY
Description: Cross curve PPAR transactivation test (PPARδ). Conditions: HeLN cells stably transfected with ERE-βGlob-Luc-SV-Neo and Gal-hPPARδ; cross curves against reference agonist, Schild regression; read-out: PPAR delta Kd app. On the procedure: (§1) The activation of receptors with an agonist (activator) in HeLN cells leads to the expression of a reporter gene, luciferase, which, in the presence of a substrate, generates light. The modulation of the receptors is measured as quantity of luminescence produced after incubating the cells in the presence of a reference agonist. The ligands will displace the agonist from its site. The measurement of the activity is performed by quantification of the light produced. This measurement makes it possible to determine the modulatory activity of the compounds according to the invention by determining the constant which is the affinity of the molecule for the receptor. Since this value can fluctuate according to the basal activity and the expression of the receptor, it is called apparent Kd (KdApp in nM).
(§2) To determine this constant, “cross curves” for the product to be tested against a reference agonist are produced in a 96-well plate: 10 concentrations of the test product plus a concentration 0 are placed in a line, and 7 concentrations of the agonist plus one concentration 0 are placed in a column. This is 88 measurement points for 1 product and 1 receptor. The 8 remaining wells are used for repeatability controls. […]
(§3) The various dilutions of the test products and of the reference ligand are added in an amount of 5 μl per well. […] After 5 minutes, the plates are read by the luminescence reader.

A further assay concerns the target T2, PPARγ (Homo sapiens, UniProt P37231).
T2 construct: It is a handle made for the test, not a second protein
T2 sequence (P37231 238-505 limits assumed): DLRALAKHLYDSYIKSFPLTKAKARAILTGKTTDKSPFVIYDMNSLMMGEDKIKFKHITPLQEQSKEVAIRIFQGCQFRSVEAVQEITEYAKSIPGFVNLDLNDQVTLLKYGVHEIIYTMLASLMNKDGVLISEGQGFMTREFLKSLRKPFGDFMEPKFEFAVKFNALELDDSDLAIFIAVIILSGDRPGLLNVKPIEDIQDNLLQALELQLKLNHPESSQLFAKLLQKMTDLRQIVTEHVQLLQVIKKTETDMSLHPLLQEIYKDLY
Put plainly: Cross curve PPAR transactivation test (PPARγ). Conditions: HeLN cells stably transfected with ERE-βGlob-Luc-SV-Neo and Gal-hPPARγ; cross curves against reference agonist, Schild regression; read-out: PPAR gamma Kd app. On the procedure: as §1, §2, §3

The target in another assay is T3, PPARα (Homo sapiens, UniProt Q07869).
T3 construct: It is a handle made for the test, not a second protein
T3 sequence (Q07869 200-468 limits assumed): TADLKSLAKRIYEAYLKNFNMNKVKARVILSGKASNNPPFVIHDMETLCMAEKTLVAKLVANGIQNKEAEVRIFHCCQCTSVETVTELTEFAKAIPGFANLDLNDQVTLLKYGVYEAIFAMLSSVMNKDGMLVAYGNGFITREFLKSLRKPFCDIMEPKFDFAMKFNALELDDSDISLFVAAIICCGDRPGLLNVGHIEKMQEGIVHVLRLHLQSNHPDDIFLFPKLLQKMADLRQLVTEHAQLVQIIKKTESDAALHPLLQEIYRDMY
Put plainly: Cross curve PPAR transactivation test (PPARα). Conditions: HeLN cells stably transfected with ERE-βGlob-Luc-SV-Neo and Gal-hPPARα; cross curves against reference agonist, Schild regression; read-out: PPAR alpha Kd app. On the procedure: as §1, §2, §3

Drawing on US20060035969A1, “Novel modulators of the PPAR-type receptors and cosmetic/pharmaceutical compositions comprised thereof” (GALDERMA RESEARCH & DEVELOPMENT, S.N.C., priority 2003, published 2006), this text covers Kd for 2 compounds.

SMILES strings stand for the structures.

As for `CCCCCCCN(C(=O)NCCc1ccccc1)c1cccc(Sc2cccc(CC(=O)O)c2)c1` [Example 25b, {3-[3-(1-Heptyl-3-phenethylureido)phenylsulfanyl]phenyl}acetic acid], the figures for the Kd at PPARδ and on PPARγ were 60 nM and 500 nM, respectively.

Turning to `O=C(O)Cc1cccc(Sc2ccc(N(CCc3ccccc3)C(=O)NC3CCCCC3)cc2)c1` [Example 18b, {3-[4-(3-Cyclohexyl-1-phenethylureido)phenylsulfanyl]phenyl}acetic acid], the results for the Kd on PPARα, on PPARδ and at PPARγ were 250 nM, 15 nM and 30 nM, respectively.
